# Residue numbers refer to the chain shown, from its start.
# Legend:
# [1] = biological target: T1, GST-ARV1-N98 (N-terminal 98 amino acids, AHD) (Homo sapiens, UniProt Q9H2C2); experiment: Protein-lipid liposome binding assay (ultracentrifugation, Western blot); conditions: protein detected in final pellet
# T1 construct: Expresses amino-terminal 98 amino acids of ARV1; made in house; host or cells: E. coli BL21 (pGEX-4T1)
# T1 sequence (Q9H2C2 1-98): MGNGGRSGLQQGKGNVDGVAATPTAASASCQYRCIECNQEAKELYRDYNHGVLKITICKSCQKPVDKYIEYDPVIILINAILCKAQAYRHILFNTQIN
# Method: Lyophilized lipids were reconstituted in chloroform at 10 mg/ml and stored in glass tubes with Teflon tops at −20 °C until use. One milliliter of 10 mg/ml stock was dried under a stream of nitrogen in a glass tube until a lipid cake/film was formed. The lipid cake was then rehydrated in BLT rehydration buffer (5 mM Tris/HCl, pH 7.4, containing 150 mM NaCl) to a concentration of 1 mg/ml. Lipid suspensions were subjected to three freeze/thaw cycles using a dry ice ethanol/[…] water bath to encapsulate the buffer and improve liposome formation. The suspension and lipid extruder were equilibrated to temperature for 10 min and liposomes were extruded using […] polycarbonate membranes (Avestin). Liposomes were made by mixing stock lipid PL (1 mg/ml) with PC (10 mg/ml).
# Cholesterol composition liposomes were rehydrated with cholesterol rehydration buffer (10 mM Hepes, pH 7.4, containing 150 mM KCl).
# Liposomes were serial diluted in floatation buffer (100 mM NaCl, 2 mM EDTA, pH 5.5) to a final concentration of 0.1 mg/ml. Nine hundred microliters of liposome solution was placed in clear ultracentrifuge tubes and mixed with 100 μl of 0.01 μg/ml of protein. The liposome/protein solution was incubated at room temperature for 1 h with occasional shaking. An initial 100 μl of liposome/protein solution (liposomes) was removed and the remaining 900 μl was centrifuged at 50,000g for 20 min at 4 °C. The pellet was resuspended in 800 μl of fresh floatation buffer, centrifuged as above, and 800 μl of supernatant was removed (wash 1). This was repeated a second time and again 800 μl of supernatant was removed (wash 2). The final pellet was resuspended in 100 μl of floatation buffer plus SDS treatment buffer (pellet). Thirty microliters of each fraction was run on a 15% SDS-PAGE gel and probed with an anti-GST monoclonal antibody at a 1:1500 dilution.
# [2] = biological target: T2, 6XHIS-N98 K84A (Homo sapiens, UniProt Q9H2C2, K84A); experiment: HTRF phospholipid lipid-binding assay, mutant; set-up: key to Bio-PL, EC50, M ± S.D.: NC, no change; conditions: biotinylated lipid, NC = no change vs N98
# T2 construct: made in house; host or cells: E. coli BL21
# T2 sequence (Q9H2C2 1-98 K84A): T1 sequence (Q9H2C2 1-98) with K84A
# Description: (§1) An HTRF assay was developed for 6XHIS-ARV1-N98-lipid binding. HTRF measures analyte interactions through fluorescence resonance energy transfer technology and time-resolved measurements ([53]). The interaction between two molecules can be quantified through binding each individual molecule involved with a fluorescent label and then analyzing the transfer of energy between the initial donor fluorophore and the secondary acceptor fluorophore. Following excitation of the first fluorophore, transfer of energy can only occur if the molecules bound with the fluorescent tags are within proximity to each other.
# (§2) Assays were plated in 384-well flat bottom microplates (Greiner Bio, catalog #784075-25). Proteins were diluted using binding buffer (20 mM Hepes buffer, pH 7.2, containing 0.1% BSA, and 0.01% Tween20) to a stock concentration of 0.75 μM, and biotinylated phospholipids were dispensed, dried under nitrogen gas, and resuspended in binding buffer to a stock concentration of 50 μM. The lipid stock solution was diluted by 1:2 for a series of 12 serial dilutions. For the assay, in sequential order, 6 μl of binding buffer was loaded into the plate in triplicate for each dilution of phospholipid. To this, 2 μl of 0.75 μM 6XHIS-ARV1-N98 was added, followed by 2 μl of biotinylated phospholipid. Immediately following each addition loaded into the plate, the plate was centrifuged for 1 min at 1000 rpm to bring the contents to the bottom of the well. Next, detection antibodies were mixed with detection buffer (20 mM Hepes buffer, pH 8.5, containing 0.01% BSA and 200 mM KF). Antibodies were a MAb anti-6XHIS Europium kryptate-conjugated D1 fluorescent antibody (Cisbio, #61HISKLA) and Streptavidin-conjugated d2 fluorescent antibody (Cisbio, #610SADLA). For each 1000 μl of detection buffer, 5 μl of each antibody was added just prior to loading 10 μl into each well. The plate was again centrifuged for 1 min at 1000 rpm and stored in a sealed container overnight, in the dark. Plates were read on a PerkinElmer EnVision Xcite Multilabel plate reader.
# (§3) Curves were logarithmically transformed and normalized to a common scale before being fit with a nonlinear regression of the agonist against the normalized response. This generated half maximal effective concentration values (EC50; M) that could then be compared between different lipids. In the context of our study, EC50 values were defined as a measure of protein sensitivity to binding to a particular lipid within a dose response curve. For phospholipid competition analysis, IC50; M values were determined using nonlinear regression of the inhibitor against normalized response.
# [3] = biological target: T3, 6XHIS-ARV1-N98 D72A (Homo sapiens, UniProt Q9H2C2, D72A); experiment: Lipid overlay far western, site-directed mutant; format: binding; conditions: compared to the ARV1-N98 protein
# T3 construct: Expressing amino-terminal 98 amino acids of ARV1; made in house; host or cells: E. coli BL21 (pET-28a(+))
# T3 sequence (Q9H2C2 1-98 D72A): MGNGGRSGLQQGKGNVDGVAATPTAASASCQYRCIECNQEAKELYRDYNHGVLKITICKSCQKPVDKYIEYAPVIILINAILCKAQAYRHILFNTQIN
# How it was run: (§4)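 Tagged ARV1 at 0.5 μg/ml, 1 h RT, in 3% TBST-BSA + 0.1% Triton X-100 on lipid overlays pre-blocked in TBST-BSA pH 7.5. Anti-tag mAb 1:1000, 1 h RT; chemiluminescent readout.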
# [4] = biological target: T4, 6XHIS-ARV1-N98 E70A (Homo sapiens, UniProt Q9H2C2, E70A); experiment: Lipid overlay far western, site-directed mutant; format: binding; conditions: compared to the ARV1-N98 protein
# T4 construct: Expressing amino-terminal 98 amino acids of ARV1; made in house; host or cells: E. coli BL21 (pET-28a(+))
# T4 sequence (Q9H2C2 1-98 E70A): as the sequence (Q9H2C2 1-98 D72A) above, with E70A, A72D counted along it
# How it was run: as §4
# [5] = biological target: T5, 6XHIS-N98 K67A (Homo sapiens, UniProt Q9H2C2, K67A); experiment: HTRF phospholipid lipid-binding assay, mutant; set-up: key: NC, no change; conditions: biotinylated lipid; NC = no change vs N98
# T5 construct: made in house; host or cells: E. coli BL21
# T5 sequence (Q9H2C2 1-98 K67A): T1 sequence (Q9H2C2 1-98) with K67A
# Description: as §1, §2, §3
binding to PC:PL liposomes [1],"EC50 ([2]; read-out: Bio-PL, EC50, M ± S.D.) [nM]",Compound,change of lipid-protein interaction [3],change of lipid-protein interaction [4],"Bio-PL, EC50, M ± S.D. [5]","Bio-PL, EC50, M ± S.D. [2]"
Neither,210,phosphatidylethanolamine [PE],,,,
not,,"CCCCCCCCCCCCCCCC(=O)OC[C@H](COP(=O)(O)O)OC(=O)CCCCCCCCCCCCCCC [PA, phosphatidic acid]",,,NC,NC
bound,,"CCCCC/C=C\C/C=C\CCCCCCCC(=O)OC[C@H](COP(=O)(O)OCC(O)COP(=O)(O)OC[C@@H](COC(=O)CCCCCCC/C=C\C/C=C\CCCCC)OC(=O)CCCCCCC/C=C\C/C=C\CCCCC)OC(=O)CCCCCCC/C=C\C/C=C\CCCCC (stereo partly shown) [CL, cardiolipin]",weakened,weakened,,

# More lines, now with the values behind:
Compound,binding to PC:PL liposomes [1],"EC50 ([2]; read-out: Bio-PL, EC50, M ± S.D.) [nM]",change of lipid-protein interaction [3],change of lipid-protein interaction [4],"Bio-PL, EC50, M ± S.D. [5]","Bio-PL, EC50, M ± S.D. [2]"
"CCCCCCCC/C=C\CCCCCCCC(=O)OC[C@H](COP(=O)(O)OCC(O)CO)OC(=O)CCCCCCC/C=C\CCCCCCCC (stereo partly shown) [PG, phosphatidylglycerol]",bound,,weakened,weakened,reduced PG binding,reduced
phosphatidylcholine [PC],,,,,NC,NC
CCCCCC(=O)O[C@H](COC(=O)CCCCCNC(=O)CCCC[C@@H]1SC[C@@H]2NC(=O)N[C@@H]21)COP(=O)(O)O[C@H]1[C@H](O)[C@@H](O)[C@H](OP(=O)(O)O)[C@@H](O)[C@H]1O [reference compound],,,,,weakened,
"CCCCCCCCCCCCCCCCCC(=O)OC[C@H](COP(=O)(O)OC[C@H](N)C(=O)O)OC(=O)CCCCCCCCCCCCCCCCC [PS, phosphatidylserine]",bound,,,,NC,NC

# Reference: paper PMC11952846, “The sterol-regulating human ARV1 binds cholesterol and phospholipids through its conserved ARV1 homology domain” (The Journal of Biological Chemistry, 2025)
